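Compound exposure: 48 hours, 5 concentrations, 96-well plates. TGI is the concentration that stops growth completely.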
How the values were obtained:
Assay in all cases: NCI tumour cell line growth inhibition, 48 h
OVCAR-5 ovarian = test system: OVCAR-5 ovarian
SNB-19 CNS = test system: SNB-19 CNS
UACC-257 melanoma = test system: UACC-257 melanoma
UO-31 renal = test system: UO-31 renal
TK-10 renal = test system: TK-10 renal
EKVX NSCLC = test system: EKVX NSCLC
786-0 renal = test system: 786-0 renal
OVCAR-3 ovarian = test system: OVCAR-3 ovarian
HL-60(TB) leukemia = test system: HL-60(TB) leukemia
COLO 205 colon = test system: COLO 205 colon
SF-539 CNS = test system: SF-539 CNS
RXF 393 renal = test system: RXF 393 renal
LXFL 529 NSCLC = test system: LXFL 529 NSCLC
UACC-62 melanoma = test system: UACC-62 melanoma
SK-MEL-5 melanoma = test system: SK-MEL-5 melanoma
SNB-75 CNS = test system: SNB-75 CNS
SF-268 CNS = test system: SF-268 CNS
SF-295 CNS = test system: SF-295 CNS
LOX IMVI melanoma = test system: LOX IMVI melanoma
K-562 leukemia = test system: K-562 leukemia
DMS 114 small cell lung = test system: DMS 114 small cell lung
A549 NSCLC = test system: A549 NSCLC
HCC-2998 colon = test system: HCC-2998 colon
A498 renal = test system: A498 renal
OVCAR-8 ovarian = test system: OVCAR-8 ovarian
MOLT-4 leukemia = test system: MOLT-4 leukemia
SK-MEL-2 melanoma = test system: SK-MEL-2 melanoma
NCI-H460 lung = test system: NCI-H460 lung
SW-620 colon = test system: SW-620 colon
SNB-78 CNS = test system: SNB-78 CNS
DLD-1 colon = test system: DLD-1 colon
MALME-3M melanoma = test system: MALME-3M melanoma
IGROV1 ovarian = test system: IGROV1 ovarian
SN12C renal = test system: SN12C renal
M14 melanoma = test system: M14 melanoma
XF 498 CNS = test system: XF 498 CNS
NCI-H522 lung = test system: NCI-H522 lung
HCT-15 colon = test system: HCT-15 colon
DMS 273 small cell lung = test system: DMS 273 small cell lung
HT29 colon = test system: HT29 colon
OVCAR-4 ovarian = test system: OVCAR-4 ovarian
SK-MEL-28 melanoma = test system: SK-MEL-28 melanoma
KM12 colon = test system: KM12 colon
CCRF-CEM leukemia = test system: CCRF-CEM leukemia
HCT-116 colon = test system: HCT-116 colon
SK-OV-3 ovarian = test system: SK-OV-3 ovarian
NCI-H23 lung = test system: NCI-H23 lung
HOP-18 NSCLC = test system: HOP-18 NSCLC
NCI-H226 lung = test system: NCI-H226 lung
KM20L2 colon = test system: KM20L2 colon
RPMI-8226 leukemia = test system: RPMI-8226 leukemia
ACHN renal = test system: ACHN renal
CAKI-1 renal = test system: CAKI-1 renal
HOP-62 NSCLC = test system: HOP-62 NSCLC
P388 leukemia = test system: P388 leukemia
SN12K1 renal = test system: SN12K1 renal
M19-MEL melanoma = test system: M19-MEL melanoma
NCI/ADR-RES ovarian = test system: NCI/ADR-RES ovarian
MCF7 breast = test system: MCF7 breast
P388/ADR leukemia = test system: P388/ADR leukemia
HOP-92 NSCLC = test system: HOP-92 NSCLC
U251 CNS = test system: U251 CNS
SR leukemia = test system: SR leukemia

Work on `CC1(C)OB(O)OC1(C)C` yielded a TGI (OVCAR-5 ovarian) of over 100 µM, a TGI (SNB-19 CNS) of over 100 µM and a TGI (UACC-257 melanoma) of over 100 µM. For the same compound, the TGI (UO-31 renal) was over 100 µM, the TGI (TK-10 renal) was over 100 µM and the TGI (EKVX NSCLC) was over 100 µM. For the same compound, the TGI (786-0 renal) was over 100 µM, the TGI (OVCAR-3 ovarian) was over 100 µM and the TGI (HL-60(TB) leukemia) was over 100 µM. It also gave a TGI (COLO 205 colon) of over 100 µM, a TGI (SF-539 CNS) of over 100 µM and a TGI (RXF 393 renal) of over 100 µM. For the same compound, the TGI (LXFL 529 NSCLC) was over 100 µM, the TGI (UACC-62 melanoma) was over 100 µM and the TGI (SK-MEL-5 melanoma) was over 100 µM. It also gave a TGI (SNB-75 CNS) of over 100 µM, a TGI (SF-268 CNS) of over 100 µM and a TGI (SF-295 CNS) of over 100 µM. It also gave a TGI (LOX IMVI melanoma) of over 100 µM, a TGI (K-562 leukemia) of over 100 µM and a TGI (DMS 114 small cell lung) of over 100 µM. For the same compound, the TGI (A549 NSCLC) was over 100 µM, the TGI (HCC-2998 colon) was over 100 µM and the TGI (A498 renal) was over 100 µM. It also gave a TGI (OVCAR-8 ovarian) of over 100 µM, a TGI (MOLT-4 leukemia) of over 100 µM and a TGI (SK-MEL-2 melanoma) of over 100 µM. For the same compound, the TGI (NCI-H460 lung) was over 100 µM, the TGI (SW-620 colon) was over 100 µM and the TGI (SNB-78 CNS) was over 100 µM. The TGI (DLD-1 colon) was over 100 µM, the TGI (MALME-3M melanoma) was over 100 µM and the TGI (IGROV1 ovarian) was over 100 µM. For the same compound, the TGI (SN12C renal) was over 100 µM, the TGI (M14 melanoma) was over 100 µM and the TGI (XF 498 CNS) was over 100 µM. For the same compound, the TGI (NCI-H522 lung) was over 100 µM, the TGI (HCT-15 colon) was over 100 µM and the TGI (DMS 273 small cell lung) was over 100 µM. It also gave a TGI (HT29 colon) of over 100 µM, a TGI (OVCAR-4 ovarian) of over 100 µM and a TGI (SK-MEL-28 melanoma) of over 100 µM. For the same compound, the TGI (KM12 colon) was over 100 µM, the TGI (CCRF-CEM leukemia) was over 100 µM and the TGI (HCT-116 colon) was over 100 µM. It also gave a TGI (SK-OV-3 ovarian) of over 100 µM, a TGI (NCI-H23 lung) of over 100 µM and a TGI (HOP-18 NSCLC) of over 100 µM. For the same compound, the TGI (NCI-H226 lung) was over 100 µM, the TGI (KM20L2 colon) was over 100 µM and the TGI (RPMI-8226 leukemia) was over 100 µM. The TGI (ACHN renal) was over 100 µM, the TGI (CAKI-1 renal) was over 100 µM and the TGI (HOP-62 NSCLC) was over 100 µM.
For `CCCCCCCC/C=C\CCCCCCCC(=O)O`, the TGI (OVCAR-5 ovarian) was over 500 µM, the TGI (SNB-19 CNS) was 252 µM and the TGI (UACC-257 melanoma) was 201 µM. The TGI (UO-31 renal) was 241 µM, the TGI (EKVX NSCLC) was 164 µM and the TGI (OVCAR-3 ovarian) was over 232 µM. For the same compound, the TGI (HL-60(TB) leukemia) was 290 µM, the TGI (COLO 205 colon) was over 500 µM and the TGI (SF-539 CNS) was 184 µM. For the same compound, the TGI (RXF 393 renal) was 168 µM, the TGI (UACC-62 melanoma) was 351 µM and the TGI (SK-MEL-5 melanoma) was over 282 µM. The TGI (SNB-75 CNS) was 29.6 µM, the TGI (SF-268 CNS) was 192 µM and the TGI (SF-295 CNS) was 176 µM. The TGI (LOX IMVI melanoma) was 239 µM, the TGI (P388 leukemia) was 274 µM and the TGI (K-562 leukemia) was 219 µM. For the same compound, the TGI (DMS 114 small cell lung) was 194 µM, the TGI (SN12K1 renal) was 175 µM and the TGI (A549 NSCLC) was 226 µM. The TGI (HCC-2998 colon) was over 500 µM, the TGI (A498 renal) was over 500 µM and the TGI (OVCAR-8 ovarian) was 194 µM. It also gave a TGI (MOLT-4 leukemia) of 331 µM, a TGI (SK-MEL-2 melanoma) of over 281 µM and a TGI (NCI-H460 lung) of 192 µM. For the same compound, the TGI (SW-620 colon) was 355 µM, the TGI (SNB-78 CNS) was 130 µM and the TGI (M19-MEL melanoma) was 183 µM. The TGI (DLD-1 colon) was 221 µM, the TGI (NCI/ADR-RES ovarian) was 196 µM and the TGI (MALME-3M melanoma) was over 500 µM. The TGI (IGROV1 ovarian) was over 281 µM, the TGI (MCF7 breast) was 215 µM and the TGI (SN12C renal) was 199 µM. It also gave a TGI (XF 498 CNS) of 13.6 µM, a TGI (NCI-H522 lung) of 210 µM and a TGI (P388/ADR leukemia) of 200 µM. It also gave a TGI (HCT-15 colon) of 338 µM, a TGI (DMS 273 small cell lung) of 210 µM and a TGI (HOP-92 NSCLC) of over 5 µM. It also gave a TGI (HT29 colon) of over 500 µM, a TGI (OVCAR-4 ovarian) of over 352 µM and a TGI (SK-MEL-28 melanoma) of 329 µM. The TGI (KM12 colon) was over 500 µM, the TGI (CCRF-CEM leukemia) was 197 µM and the TGI (HCT-116 colon) was 217 µM. For the same compound, the TGI (SK-OV-3 ovarian) was over 500 µM, the TGI (U251 CNS) was 231 µM and the TGI (NCI-H23 lung) was 146 µM. For the same compound, the TGI (NCI-H226 lung) was 227 µM, the TGI (KM20L2 colon) was over 500 µM and the TGI (RPMI-8226 leukemia) was 277 µM. For the same compound, the TGI (CAKI-1 renal) was 206 µM and the TGI (HOP-62 NSCLC) was over 500 µM.
With `CN(CC#N)C1CCCC[C@H]1O` (some centres not stated) the TGI (OVCAR-5 ovarian) was over 100 µM, the TGI (SNB-19 CNS) was over 100 µM and the TGI (UACC-257 melanoma) was over 100 µM. It also gave a TGI (UO-31 renal) of over 100 µM, a TGI (TK-10 renal) of over 100 µM and a TGI (EKVX NSCLC) of over 100 µM. For the same compound, the TGI (786-0 renal) was over 100 µM, the TGI (OVCAR-3 ovarian) was over 100 µM and the TGI (HL-60(TB) leukemia) was over 100 µM. For the same compound, the TGI (COLO 205 colon) was over 100 µM, the TGI (SF-539 CNS) was over 100 µM and the TGI (RXF 393 renal) was over 100 µM. The TGI (LXFL 529 NSCLC) was over 100 µM, the TGI (UACC-62 melanoma) was over 100 µM and the TGI (SK-MEL-5 melanoma) was over 100 µM. It also gave a TGI (SNB-75 CNS) of over 100 µM, a TGI (SF-268 CNS) of over 100 µM and a TGI (SF-295 CNS) of over 100 µM. It also gave a TGI (LOX IMVI melanoma) of over 100 µM, a TGI (K-562 leukemia) of over 100 µM and a TGI (DMS 114 small cell lung) of over 100 µM. For the same compound, the TGI (A549 NSCLC) was over 100 µM, the TGI (HCC-2998 colon) was over 100 µM and the TGI (A498 renal) was over 100 µM. The TGI (OVCAR-8 ovarian) was over 100 µM, the TGI (MOLT-4 leukemia) was over 100 µM and the TGI (SK-MEL-2 melanoma) was over 100 µM. It also gave a TGI (NCI-H460 lung) of over 100 µM, a TGI (SW-620 colon) of over 100 µM and a TGI (SNB-78 CNS) of over 100 µM. The TGI (DLD-1 colon) was over 100 µM, the TGI (MALME-3M melanoma) was over 100 µM and the TGI (IGROV1 ovarian) was over 100 µM. It also gave a TGI (SN12C renal) of over 100 µM, a TGI (M14 melanoma) of over 100 µM and a TGI (XF 498 CNS) of over 100 µM. For the same compound, the TGI (NCI-H522 lung) was over 100 µM, the TGI (HCT-15 colon) was over 100 µM and the TGI (DMS 273 small cell lung) was over 100 µM. It also gave a TGI (HOP-92 NSCLC) of over 100 µM, a TGI (SR leukemia) of over 100 µM and a TGI (HT29 colon) of over 100 µM. The TGI (OVCAR-4 ovarian) was over 100 µM, the TGI (SK-MEL-28 melanoma) was over 100 µM and the TGI (KM12 colon) was over 100 µM. For the same compound, the TGI (CCRF-CEM leukemia) was over 100 µM, the TGI (HCT-116 colon) was over 100 µM and the TGI (SK-OV-3 ovarian) was over 100 µM. It also gave a TGI (U251 CNS) of over 100 µM, a TGI (NCI-H23 lung) of over 100 µM and a TGI (HOP-18 NSCLC) of over 100 µM. The TGI (NCI-H226 lung) was over 100 µM, the TGI (KM20L2 colon) was over 100 µM and the TGI (RPMI-8226 leukemia) was over 100 µM. The TGI (ACHN renal) was over 100 µM, the TGI (CAKI-1 renal) was over 100 µM and the TGI (HOP-62 NSCLC) was over 100 µM.

Reference: PubChem BioAssay (NCI)
